The nature of data set [1]: In vitro metabolic stability in rat liver microsomes. It is filed as in vitro ADME. The conditions noted are these: NADPH, 30 min.
For data set [2], the system named is MIA PaCa2 cells. Description: Western blot of apoptosis-related proteins. It is filed as cell-based, human. To be noted: 20 µM, 24 h. On the procedure: Cell extracts from MIA Paca2 cells were determined by BCA Protein Assay Kit (Thermo Scientific) according to the manufacturer’s instructions. Separate 20–30 μg protein by electrophoresis using Tris-Glycine gel and transfer to PVDF membranes. After transferring and blocking, the membrane was incubated with the primary antibody in TBS-T buffer containing 5% skim milk overnight at 4 °C. Then, the membrane was washed three times with TBS-T, and the secondary antibody was incubated. Chemiluminescence detection was performed using a Western blot detection kit (Milipore). Bax, Bcl-2, Caspase-3, PARP, AKT, p-AKT, ERK, and p-ERK were used for Western blot analysis. Internal controls were detected using Actin antibody.
On the technique in general: Immunoblotting shows a protein as a band on a membrane.

Another data set relates to PP2A. Put plainly: PP2A immunoprecipitation phosphatase activity assay in MIA PaCa2 cells. The data set is classed as cell-based, human. The conditions noted are these: 20 µM. On the procedure: PP2A activity assay was a PP2A immunoprecipitation phosphatase assay kit operated according to the manufacturer’s instruction. Briefly, a prepared protein aliquot was incubated with anti-PP2A subunit C-antibody and protein A agarose slurry at 4 °C for 2–3 h, and then phosphopeptide was added. Samples were recorded by Thermo Scientific Multiskan GO.

The nature of data set [3]: In vitro metabolic stability in dog liver microsomes. To be noted: NADPH, 30 min. It is filed as in vitro ADME. In general terms: Liver microsomes are vesicles of endoplasmic reticulum, rich in cytochrome P450 enzymes.
A short description of data set [4]: In vitro metabolic stability in human liver microsomes. To be noted: human liver microsomes 0.5 mg/mL, NADPH, 30 min.
Description: Microsomal incubations were conducted in triplicate in 0.1 M potassium phosphate buffer (pH 7.4) in a clean 1.5 mL Eppendorf tube. […] The final incubation mixtures contained 0.5 mg/mL HLM, 0.1 M potassium phosphate buffer (pH 7.4), NADPH regenerating system (1 mM NADPH, 10 mM MgCl2). HLM was added, and the mixture was pre-incubated at 37 °C in a shaking incubator at approximately 350 rpm for 5 min under a Thermo mixer (Eppendorf., Hamburg, Germany). Reactions were initiated by the addition of 1 mM NADPH and were then quenched by adding 40 µL of ice-cold acetonitrile containing 10 µM chlorpropamide (CPP) as an internal standard at 0 and 30 min. The incubation mixtures were then centrifuged at 15,000 g for 5 min at 4 °C. A 2 µL aliquot of the supernatant was directly injected into the LC-MS/MS system. The LC-MS/MS system consisted of the Nexera XR HPLC system (Shimadzu Co., Kyoto, Japan) coupled to the TSQ Vantage triple quadrupole mass spectrometer equipped with Xcalibur version 1.1.1 (Thermo Fisher Scientific Inc., Waltham, MA, USA).
The subject of data set [5] is MIA PaCa2 cells. Put plainly: Mitochondrial membrane potential, JC-10 staining. The data set is classed as cell-based, human. To be noted: 20 µM. The protocol:
To measure the degree of MMP change of cancer cells, 20 μM JC-10 dye and assay buffer (Enzo Co., New York, NY, USA) were added to the cells cultured for 24 h and mixed until the cells were completely dissolved. Subsequently, the cells were incubated in the dark for 30 min at room temperature. The solutions were protected from light and analyzed by using flow cytometry.

For data set [6], the system named is MIA PaCa2 cells. Put plainly: Cell viability / cytotoxic effect in MIA PaCa2 cells (EZ-CYTOX/MTT). It is filed as cell-based. To be noted: Homo sapiens, MIA PaCa-2, 2.5-40 µM, 24 h, relative IC50. The protocol: The human pancreatic ductal epithelial cell lines MIA Paca2, PANC-1 were maintained in DMEM media with 10% fetal bovine serum (FBS), 100 U/mL penicillin, and 100 µg/mL streptomycin at 37 °C in a humidified 5% CO2/95% air atmosphere. Cells were seeded in 96-well plates at a density of 3000 cells/100 μL/well and incubated for 24 h. The cells were then incubated in a culture medium containing synthetic compounds. Following 24 h of incubation, the cell viability was determined using an EZ-CYTOX kit (DaeilLab Service, Seoul, Korea) according to the manufacturer’s protocol (n = 12).
Supplementary Figure 1. Relative IC50 determination of Compound 5, Compound 10, PF-543, and FTY720. MIAPaCa2 cells were seeded in 96 well plates and treated with 2.5-40 µ M of compounds for 24h. Cell viability was assessed using MTT assay, and Relative IC50 was determined using Graph pad prism software. The result is representative of three independent experiments and data are presented as mean ± SD. *** p < 0.001 compared with non-treated […]
(1 picture or pasted object on this page, not shown here)

Data set [7] concerns MIA PaCa2 cells. Description: Ceramide, S1P and sphingosine levels by ELISA in MIA PaCa2 cells. The data set is classed as cell-based, human. The conditions noted are these: 20 µM. On the procedure: Ceramide, sphingosine, and S1P level were performed as protocols recommended by Mybiosource using the ceramide, sphingosine, and S1P ELISA kit (MyBiosource Inc., San Diego, CA, USA). Ceramide and sphingosine S1P measurements were tested with proteins that were centrifuged and collected by repeating freezing and thawing from three to five times after adding PBS to cells.

The nature of data set [8]: In vitro metabolic stability in mouse liver microsomes. It is filed as in vitro ADME. To be noted: NADPH, 30 min.
The next data set concerns the target T1, SPHK2 (Homo sapiens, UniProt Q9NRA0).
T1 construct: purchased Thermo Fisher Scientific
T1 sequence (Q9NRA0 1-654): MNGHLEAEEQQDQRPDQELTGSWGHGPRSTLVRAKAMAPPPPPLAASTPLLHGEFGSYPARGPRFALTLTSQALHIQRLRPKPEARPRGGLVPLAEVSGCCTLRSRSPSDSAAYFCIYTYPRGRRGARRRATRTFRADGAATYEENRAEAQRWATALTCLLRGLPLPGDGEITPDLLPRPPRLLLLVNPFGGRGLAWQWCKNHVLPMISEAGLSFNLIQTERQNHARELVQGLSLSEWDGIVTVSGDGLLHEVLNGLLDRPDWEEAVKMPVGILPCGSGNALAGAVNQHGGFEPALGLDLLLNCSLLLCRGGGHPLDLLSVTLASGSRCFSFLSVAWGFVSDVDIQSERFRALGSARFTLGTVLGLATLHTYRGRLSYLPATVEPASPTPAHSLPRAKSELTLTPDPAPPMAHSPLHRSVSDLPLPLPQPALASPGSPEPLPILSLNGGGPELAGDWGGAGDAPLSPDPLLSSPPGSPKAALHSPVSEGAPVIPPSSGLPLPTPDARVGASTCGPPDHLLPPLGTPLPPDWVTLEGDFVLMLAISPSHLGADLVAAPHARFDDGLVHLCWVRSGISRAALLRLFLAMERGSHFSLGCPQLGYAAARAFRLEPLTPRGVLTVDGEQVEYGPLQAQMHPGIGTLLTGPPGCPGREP
Put plainly: Sphingosine kinase 2 activity assay (Adapta screening system). To be noted: 20 µM compound. It is filed as biochemical. On the procedure: (§1) SK 1/2 activity was measured using 20 μM PF-543 and compounds 1–10 using the AdaptaTM screening system (Thermo Fisher Scientific system). Sphingosine kinase 1 activity assay used 0.04–0.16 ng SPHK1, 50 μM sphingosine lipid substrate in 32.5 mM HEPES pH 7.5, 0.005% BRIJ 35, 5 mM MgCl2, 0.5 mM EGTA. Sphingosine kinase 2 activity assay detected 35–140 ng SPHK2, 50 μM sphingosine lipid substrate in 32.5 mM HEPES pH 7.5, 0.5 mM EGTA, and 1.5 mM MgCl2.

The next data set has as its target T2, SPHK1 (Homo sapiens, UniProt Q9NYA1).
T2 construct: purchased Thermo Fisher Scientific
Description: Sphingosine kinase 1 activity assay (Adapta screening system). To be noted: 20 µM compound. It is filed as biochemical. The protocol:
as §1

The subject of data set [9] is MIA PaCa2 cells. Put plainly: Annexin-V apoptosis assay (flow cytometry). The data set is classed as cell-based, human. To be noted: 20 µM. The protocol:
Cell apoptosis assay was determined using annexin V- FITC and propidium iodide (PI) staining, as described in manufacturer instruction (BioBud, Gyeonggi-do, Korea). Briefly, the cells were resuspended in binding buffer and then incubated with annexin-V-FITC and propidium iodide at room temperature. After incubation, stained cells were analyzed by MACSQuant Analyzer 10 Flow Cytometer (Miltenyi Biotec, Bergisch Gladbach, Germany). The experiment was conducted three times independently (n = 6).
In general terms: In flow cytometry, cells or beads pass a laser one at a time.

A further data set has as its system SK1. Further details: method as in PMID 30889352. To be noted: cited from earlier work.
A further data set concerns SK2. The arrangement: method as in PMID 30889352. To be noted: cited from earlier work.

T2 sequence (Q9NYA1 whole entry): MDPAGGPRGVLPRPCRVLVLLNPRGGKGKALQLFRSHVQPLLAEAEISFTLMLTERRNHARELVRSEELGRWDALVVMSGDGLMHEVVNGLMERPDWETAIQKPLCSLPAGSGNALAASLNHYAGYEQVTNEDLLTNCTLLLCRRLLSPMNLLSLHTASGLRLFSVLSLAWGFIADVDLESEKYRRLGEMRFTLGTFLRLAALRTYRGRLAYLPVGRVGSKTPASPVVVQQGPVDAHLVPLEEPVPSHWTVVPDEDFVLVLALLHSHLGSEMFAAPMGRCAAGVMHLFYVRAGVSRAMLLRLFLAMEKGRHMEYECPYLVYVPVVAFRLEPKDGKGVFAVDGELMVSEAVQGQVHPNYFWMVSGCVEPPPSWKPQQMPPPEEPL

As usually defined, the IC50 is the point on the concentration scale where inhibition reaches its midpoint. As to `Cc1cc(Cn2cc(-c3ccccc3)nn2)cc(OCc2ccc(CN3CCC(CO)CC3)cc2)c1` [Compound 5, (1-(4-((3-Methyl-5-((4-phenyl-1H-1,2,3-triazol-1-yl)methyl)phenoxy)methyl)benzyl)piperidin-4-yl)methanol], the “In vitro stability, Rat (%)” value in data set [1] was determined as 27.6%. Also, in the data set with MIA PaCa2 cells [2], the “expression of pro-apoptotic proteins (cleaved PARP, cleaved caspase-3)” value was “insignificant compared to the compound 10 treatment group”. Moreover, the PP2A activity result in the data set on PP2A is reported as “little effect on PP2A”. Besides, the “In vitro stability, Dog (%)” value in [3] amounted to 40.8%. For the same compound, in data set [4], the “In vitro stability, Human (%)” value came to 45.4%. For the same compound, the “mitochondrial membrane potential (ratio of red to green fluorescence, JC-10)” value in the data set with MIA PaCa2 cells [5] is “significantly reduced the mitochondrial membrane potential”. This compound also came in with an IC50 in the data set on MIA PaCa2 cells [6] of 26.1 µM. In the data set on MIA PaCa2 cells [7], the S1P level result is “increased the S1P level”. For the same compound, the “In vitro stability, Mouse (%)” value in data set [8] was 17.9%.

For the compound `CCCCCCCCc1cn(Cc2cc(C)cc(OCc3ccc(CN4CCC(CO)CC4)cc3)c2)nn1` [Compound 10, (1-(4-((3-Methyl-5-((4-octyl-1H-1,2,3-triazol-1-yl)methyl)phenoxy)methyl)benzyl)piperidin-4-yl)methanol], the “In vitro stability, Rat (%)” value in data set [1] was 53.3%. Besides, at SPHK2, the SK2-inhibitory effect entry is “inhibited both SK1 and SK2”. The SK1-inhibitory effect result on SPHK1 was “inhibited both SK1 and SK2”. Also, in the data set with MIA PaCa2 cells [2], the “expression of anti-apoptotic protein Bcl-2” value was “Bcl-2 decreased”; the “expression of pro-apoptotic proteins (cleaved PARP, cleaved caspase-3)” value was “cleaved form of PARP and caspase-3 increased”. Also, the PP2A activity entry with PP2A was “activated PP2A”. Also, the “In vitro stability, Dog (%)” value in data set [3] is on record as 58.3%. In addition, the “In vitro stability, Human (%)” value in [4] amounted to 66.7%. In addition, in the data set with MIA PaCa2 cells [5], the “mitochondrial membrane potential (ratio of red to green fluorescence, JC-10)” value is “significantly reduced the mitochondrial membrane potential”. The IC50 in the data set with MIA PaCa2 cells [6] stood at 11.1 µM. In addition, in the data set on MIA PaCa2 cells [7], the S1P level result is “reduced the levels of S1P and sphingosine”; the ceramide level result is “the ceramide level increased”; the sphingosine level result was “reduced the levels of S1P and sphingosine”. In addition, the “In vitro stability, Mouse (%)” value in data set [8] worked out at 33.3%. In the data set with MIA PaCa2 cells [9], the “apoptotic effect (annexin-V)” value is listed as “high apoptotic effect”.

Regarding `CCCCCCCCc1ccc(CCC(N)(CO)CO)cc1` [FTY720, reference compound], the 50% inhibitory concentration (IC50) with MIA PaCa2 cells [6] was 9.57 µM.

As to `Cc1cc(CS(=O)(=O)c2ccccc2)cc(OCc2ccc(CN3CCC[C@@H]3CO)cc2)c1` [PF-543], the “In vitro stability, Rat (%)” value in data set [1] stood at 4.7%. In the data set with PP2A, the PP2A activity entry is “also activated PP2A”. In addition, the “In vitro stability, Dog (%)” value in data set [3] was 2.9%. The “mitochondrial membrane potential (ratio of red to green fluorescence, JC-10)” value in the data set with MIA PaCa2 cells [5] is on record as “significantly reduced the mitochondrial membrane potential”. In the data set with MIA PaCa2 cells [7], the S1P level result is “reduce the level of S1P”; the ceramide level result is “did not significantly change the levels of ceramide and sphingosine”; the sphingosine level result was “did not significantly change the levels of ceramide and sphingosine”. The “In vitro stability, Mouse (%)” value in [8] came out at 7.5%.

Consider `OC[C@H]1CCCN1Cc1ccc(COc2cccc(OCc3ccc(Cl)cc3)c2)cc1` [compound 55], for which the half-maximal inhibitory concentration (IC50) was 4.13 µM with SK1 and 0.041 µM with SK2.

Source of the values: paper PMC9145885, “Synthesis of PP2A-Activating PF-543 Derivatives and Investigation of Their Inhibitory Effects on Pancreatic Cancer Cells” (Molecules, 2022).
